Laboratory results published in patent US20230137491A1, “PEPTIDES AND USES THEREOF” (SINTICA BIOTECH SOCIETÀ A RESPONSABILITÀ LIMITATA …, priority 2020, published 2023).
Non-standard residues stand in square brackets, D forms with d.

Assays:
[1] = tested on: CD271 expression in melanoma cell lines; experiment: CD271 protein expression by Western blotting and flow cytometry; type: cell-based, human; settings: WM115, WM266-4 and SKMEL28, 1 to 2.5 mM, 48 h treatment
Experimental: FIG. 7. Chemotherapy up-regulates CD271 in primary and metastatic melanoma cell lines. (A) A real-time PCR using primers for intra- and extracellular CD271 receptor was performed on RNA extracts from three melanoma cell lines after treatment with carmustine (BCNU), cisplatin, dacarbazine (DTIC) or diluent. (B) Protein extracts from the three melanoma cell lines treated with different doses of cisplatin, carmustine, dacarbazine or diluent were separated on polyacrylamide gel and transferred onto nitrocellulose membranes. (C) Melanoma cell lines were treated with the chemotherapy or the diluent (see above) stained with anti CD271 mAb and analysed by flow cytometry.
FIG. 13. Non-steroid anti-inflammatory drugs (NSAID) enhance CD271 levels in melanoma cell lines. Three melanoma cell lines were treated with increasing doses of ketoprofen (A) or ibuprofen (B) and the percentage of CD271 positive cells was measured by flow cytometry.
Melanoma cell lines were treated with the chemotherapy or the diluent for 48 h, then were harvested and incubated with anti CD271 antibody (1:100 in PBS, Lab Vision Corporation, Thermo Fisher Scientific, Fremont, Calif., USA) for 20 min at 4° C. Cells were labeled with secondary antibody Alexa Fluor anti-mouse 488 (1:50, Thermo Fisher Scientific) for 20 min at 4° C. and analyzed with Epics XL flow cytometer (Beckman Coulter). […]

[2] = tested on: melanoma cell lines (WM115, WM266-4, SKmel28, WM793B, 1205Lu); experiment: MTT assay in melanoma cell lines; type: cell-based, human; settings: for proliferation (MTT assay) with NSAID: WM115, WM266-4 and SKMEL28, increasing concentrations, 48 hrs
Experimental: 5×10^3 cells/well were seeded in 96-well culture plates. At different time points, cells were incubated with 0.5% MTT (3-(4,5-dimethylthiazol-2-yl)-2,5-diphenyltetrazolium bromide) for 4 h at 37° C. and then dissolved with 100 μl Isopropanol with 0.04N HCl. The plate was read at 560 nm with a reference filter of 650 nm. Results are expressed as viability percentage, as compared to control.
Five melanoma cell lines were used for testing the efficacy of XYZ or its non-PEGylated peptide component: WM115 and WM266-4, which are respectively the primary and metastatic melanoma derived from the same patient and expressing high levels of CD271, and SKme128, a metastatic melanoma cell line expressing low levels of CD271, WM793B, a primary melanoma, and 1205Lu derived from lung metastatic melanoma. The viability of the cell culture is assessed by MTT conversion. MTT solution is applied to the plates and placed into a cell culture incubator for 4 hours. The blue formazan metabolite produced by viable cells is then extracted into isopropanol and absorbance is measured at 570 nm using a spectrophotometer.

`CC(C)Cc1ccc(C(C)C(=O)O)cc1` (centres unmarked) [ibuprofen, reference compound] was tested, and the “CD271 protein levels (percentage of CD271 positive cells, flow cytometry)” value [1] was “increased CD271 protein levels” and the “proliferation (MTT assay) with NSAID” value [2] was “dose-dependently decreases proliferation”.
`CC(C(=O)O)c1cccc(C(=O)c2ccccc2)c1` (centres unmarked) [ketoprofen, reference compound] was tested, and the “CD271 protein levels (percentage of CD271 positive cells, flow cytometry)” value [1] was “increased CD271 protein levels” and the “proliferation (MTT assay) with NSAID” value [2] was “dose-dependently decreases proliferation”.
With “Ac-[dM][dL]G[dI][dI][dA]G[dK][dN][dS]G-NH2 [non-PEGylated peptide]” the “cell proliferation (MTT assay)” value ([2]; five melanoma cell lines, 48 h and 96 h after treatment, no significant difference between PEGylated and non-PEGylated form) was “reduce cell proliferation”.
